Source: US20070155824A1, “USE OF BENZO-FUSED HETEROCYCLE SULFAMIDE DERIVATIVES FOR DISEASE MODIFICATION / EPILEPTOGENESIS” (priority 2005, published 2007)

Assays:
[1] = test system: amygdala kindled rat model of partial epilepsy; assay: In Vivo, Amygdala Kindling Assay; design: species or system Sprague-Dawley rats; details: rats
Description: The development of amygdala kindling is an established model of epileptogenesis. (Amano K, Hamada K, Yagi K, Seino M. Antiepileptic effects of topiramate on amygdaloid kindling in rats. Epilepsy Res. 1998 Jul;31(2):123-8; Barton M E, White H S. The effect of CGX-1007 and CI-1041, novel NMDA receptor antagonists, on kindling acquisition and expression. Epilepsy Res. 2004 Mar;59(1):1-12; Loscher W, Honack D, Rundfeldt C. Antiepileptogenic effects of the novel anticonvulsant levetiracetam (ucb L059)in the kindling model of temporal lobe epilepsy. J Pharmacol Exp Ther. 1998 Feb;284(2):474-9; McNamara J O. Analyses of the molecular basis of kindling development. Psychiatry Clin Neurosci. 1995 June; 49(3):S175-8. Review.; Morimoto K, Katayama K, Inoue K, Sato K. Effects of competitive and noncompetitive NMDA receptor antagonists on kindling and LTP. Pharmacol Biochem Behav. 1991 Dec;40(4):893-9; Racine, R. J. 1972. Modification of seizure activity by electrical stimulation. II. Motor seizure. Electroencephalogr. Clin. Neurophysiol. 32, 281-294). The kindled rat model of partial epilepsy is an accepted model of epileptogenesis (McNamara J O. Analyses of the molecular basis of kindling development. Psychiatry Clin Neurosci. 1995 Jun;49(3):S1 75-8. Review.).
Briefly, the assay procedure was as follows. Adult male, Sprague-Dawley rats weighing between 250-300 g were obtained from Charles River, Wilmington, Mass. All the animals were housed on a 12:12 light dark cycle and permitted free access to both food (Prolab RMH 3000) and water except when removed from the home cage for experimental procedures. Animals were cared for in a matter consistent with the recommendations detailed in the National Research Council Publication, “Guide for the Care and Use of Laboratory Animals” in a temperature controlled, pesticide-free facility. Kindling stimulations were routinely performed between 9 AM-2 PM to avoid any circadian variations.
Compound #8 was triturated in a small volume of 0.5% methylcellulose, sonicated for 10 min, and brought to a final volume with 0.5% methylcellulose. Compound #8 was administered systemically (i.p.) in a volume of 0.04 ml/10 g body weight and all tests were conducted at the pre-determined time of peak effect of 0.5 hours after i.p. administration.
The ability of Compound #8 to block the expression of amygdala kindled seizures was determined as follows. Rats were anaesthetized with a ketamine (120 mg/kg, i.p.) and xylazine (12 mg/kg, i.p.) cocktail. […]
Amygdala kindling was then performed according to the following protocol. […] The behavioral seizure score and AD duration was recorded for rats in each treatment group. […]

melting point [°C] | Structure (SMILES) | behavioral seizure score (Racine scale) at the conclusion of the drug- and stimulus-free period ([1]; 75 mg/kg i.p. 30 min before daily amygdala stimulation (200 μA, 2 s) for up to 13 days, re-challenge without drug after one-week drug- and stimulus-free period, vehicle=4.6±0.24) | acquisition of the full generalized kindled seizure ([1]; 75 mg/kg i.p. during kindling acquisition) | after-discharge (AD) duration over the kindling acquisition phase vs vehicle ([1]; 75 mg/kg i.p., daily stimulation, progressive increase in both groups) | delay of acquisition of kindling ([1]; stimulated in the absence of drug after the drug-free week, seizure score rose parallel to vehicle)
– | NS(=O)(=O)NC[C@H]1COc2cc(Cl)ccc2O1 [Compound #8, (2S)-(−)-N-(6-Chloro-2,3-dihydro-benzo[1,4]dioxin-2-ylmethyl)-sulfamide] | 1.4±0.40 | prevented the acquisition of the full generalized kindled seizure | No statistical difference between treatment groups | delayed the acquisition of kindling by several days
100 to 101 | NS(=O)(=O)NCC1CCc2ccccc2O1 (centres unmarked) [Compound #10, Chroman-2-ylmethylsulfamide] | – | – | – | –
